Key:
Kir6.2 channels = biological target: T1, Kir6.2 channels (Mus musculus, UniProt Q61743); assay: Patch-clamp assay of outward potassium current in Kir6.2 channel-overexpressing cells; format: cell-based; conditions: 10 nM, whole-cell patch-clamp
T1 construct: The plasmid vector having inserted therein Kir6.2 channel cDNA: pcDNA3.1-Kir6.2; expressed in transfected cells; host or cells: Neuro2A (N2A) cells, mouse neuroblastoma
T1 sequence (Q61743 1-390): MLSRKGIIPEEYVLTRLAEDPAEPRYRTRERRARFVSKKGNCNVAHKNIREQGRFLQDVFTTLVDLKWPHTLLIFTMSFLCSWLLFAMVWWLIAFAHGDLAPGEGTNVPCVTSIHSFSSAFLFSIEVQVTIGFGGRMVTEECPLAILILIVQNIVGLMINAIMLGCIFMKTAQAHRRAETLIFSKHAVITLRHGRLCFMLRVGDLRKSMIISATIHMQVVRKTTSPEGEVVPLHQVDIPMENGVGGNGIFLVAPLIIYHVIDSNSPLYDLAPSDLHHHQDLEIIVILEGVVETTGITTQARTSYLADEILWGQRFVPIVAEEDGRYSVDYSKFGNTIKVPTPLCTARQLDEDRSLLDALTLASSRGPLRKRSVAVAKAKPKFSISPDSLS
From the text: The Kir6.2 channel-overexpressing cells obtained in Test Example 1 were used to measure potassium current discharged out of the cells by a conventional patch-clamp assay. ATP-sensitive potassium channels (Kir6.2 channels) are localized in the cell membranes of nerve cells. When the channels are inhibited and closed, the threshold of the nerve cell membranes increases to create a condition analogous to temporal generation of action potential, with the result that intracellular potassium current is discharged out of the cells and instead extracellular calcium current enters the cells. Immunoblotting of Kir6.2 channel-overexpressing cells (prepared by the aforementioned method) using an anti-Kir6.2 channel antibody (prepared by a conventional method) (n=5, under the same conditions as in Test Example 1, except for using the anti-Kir6.2 channel antibody) confirmed that Kir6.2 channels were overexpressed in N2A cells (FIG. 2-1; upper: immunoblot staining images; lower: quantitative representations of the signal intensity of staining bands).

[1] = tested on: Kir6.2 channel-overexpressing cells; assay: Calcium imaging in Kir6.2 channel-overexpressing cells; format: cell-based
Experimental: The same Kir6.2 channel-overexpressing cells as used in Test Example 1 were used to measure, by calcium imaging, the levels of calcium entering the cells after TP-014 treatment. The calcium imaging is a method in which cultured nerve cells are treated with a culture medium supplemented with a calcium fluorescent dye (Fura2, produced by Dojindo Laboratories) to a concentration of 4 μM, and measured for the levels of calcium based on fluorescence intensity. The imaging was carried out using an imaging apparatus (LAMBDA 10-2, produced by Sutter Instrument) in accordance with the attached manual.

APP23 mice = assay: Fear conditioning test in APP23 mice; format: in vivo; conditions: treated for two months
From the text: The fear conditioning test is an analysis method that takes advantage of the characteristic preference of mice for a dark place over a bright place. On day 1, a mouse is placed in a bright place. The mouse, which prefers darkness, enters a dark place (dark box), but then electrical simulation is delivered to the mouse. The mouse is surprised, returns to the bright place, and never enters the dark place. On day 2, the mouse is placed again in the bright place (the same place as on day 1) and observed for 5 minutes to see whether the mouse enters a dark place. If the mouse immediately enters the dark place, it is determined that the mouse experiences a decline in fear memory. “Latency” refers to the number of seconds until the mouse placed in the bright place on day 2 enters a dark place.

CaMKII = assay: Protein phosphorylation in hippocampus of APP23 mice (immunoblotting); format: in vivo; conditions: APP23 mice chronically treated orally, 1 mg/kg, two months
From the text: Hippocampus samples were excised from APP23 mice, and hippocampal slices were suspended in an SDS sample buffer and analyzed for protein phosphorylation by immunoblotting using antibodies against CaMKII, CaMKIV and ERK (CaMKII: Fukunaga, et al., J. Biol. Chem. 1992, 267, 22527-22533; CaMKIV: Kasahara, et al., J. Biol. Chem. 2001, 276, 24044-24050; ERK: produced by Sigma-Aldrich). CaMKII, CaMKIV and ERK are all considered as molecules playing an important role in memory formation.

amyloid-β (Aβ) = assay: Aβ aggregation in brain slices of APP23 mice (6E10 and thioflavin staining); format: in vivo; conditions: APP23 mice 14 month-old, chronic oral treatment for 2 months, 1 mg/kg
Experimental: The amyloid-β (Aβ) hypothesis regarding the pathogenesis of Alzheimer's disease has still been of great importance. It has been confirmed by immunostaining that Aβ aggregation occurs in APP23 mice (14 month-old). 50 μm brain slices were prepared from each of WT (control) and APP23 mice, and stained with 6E10 (anti-Aβ antibody, produced by Abcam) and thioflavin. The other conditions were in line with conventional immunostaining methods. […] Aβ aggregation was suppressed by chronic treatment with TP-014 (chronic oral treatment for 2 months (1 mg/kg)).

CaMKIV-deficient mice = assay: Tail-suspension test and forced swim test in CaMKIV-deficient mice; format: in vivo; conditions: chronic oral treatment for 2 weeks, 1 mg/kg
Experimental: By following the same procedure as in Test Example 12, CaMKIV-deficient mice (n=5*per group) were analyzed for CaMKIV induced by Kir6.1 channels.
The CaMKIV-deficient mice were obtained from professor Hiroyuki Sakagami, Kitasato University School of Medicine (Takao K., et al., PLoS One 2010, 5, e9460).

ob/ob mice = assay: Blood glucose levels in ob/ob mice; format: in vivo; conditions: chronic treatment 1 mg/kg for 4 weeks, on and after week 3
Experimental: In order to determine the hypoglycemic effect of TP-014, ob/ob mice were measured for blood glucose levels using an assay kit (produced by Technicon International Inc.). The measurement was taken for 4 weeks, and chronic treatment with TP-014 (1 mg/kg) was continued for 4 weeks. […] Tolbutamide was used as a control drug. Kir6.2 channels bind to SUR1 ([…]) on the cell membrane to form channels. The mechanism of action is considered to be inhibition of Kir6.2 channels. Tolbutamide inhibits Kir6.2 channels by binding to SUR1.

[2] = tested on: Kir6.1-deficient mice treated with corticosterone; assay: Anxiety-related behavioral tests in corticosterone-treated Kir6.1-deficient mice; format: in vivo; conditions: TP-014 treatment 2 weeks
Experimental: Wild-type mice (C57BL/6J, Japan SLC, two month-old) treated with corticosterone (at a dose of 5 mg/kg once a day for 2 weeks) and Kir6.1-deficient mice treated with corticosterone were used as disease models showing anxiety-like symptoms, to perform five behavioral tests regarding anxiety-related behaviors. The Kir6.1-deficient mice were obtained from Professor Susumu Seino, School of Medicine of Kobe University (Miki T., et al., Nature Medicine 2002, 8, 466-472).
The results of all the tests described above confirmed that chronic treatment with TP-014 (for 2 weeks) ameliorates exacerbated anxiety-like symptoms.

SMILES: O=C(N[C@@H](c1ccccc1)[C@H]1[C@H]2C[C@@H]3C[C@](Cl)(C2)C[C@@]1(OC(=O)C(F)(F)F)C3)C(F)(F)F [TP-014, (1S,2R,3S,5S,7S)-5-chloro-2-((R)-phenyl(2,2,2-trifluoroacetamido)methyl)adamantan-1-yl 2,2,2-trifluoroacetate]
- outwardly flowing potassium current (Kir6.2 channels): suppressed
- intracellular calcium levels ([1]; 1-100 nM, 4 minutes after treatment, Kir6.2 channel-overexpressing cells): significantly increased
- potency to enhance calcium levels compared with memantine ([1]; TP-014 1-100 nM vs memantine 100 nM): more potent to enhance calcium levels than memantine
- fear memory (latency, fear conditioning test) (APP23 mice): improvement in fear memory
- CaMKII phosphorylation in hippocampus (CaMKII): increased CaMKII phosphorylation
- Aβ aggregation (amyloid-β (Aβ)): suppressed
- depression-like symptom (increased immobility time) (CaMKIV-deficient mice): no effect
- blood glucose levels (ob/ob mice): significantly decreased
- anxiety-like symptoms [2]: no ameliorating effect was observed
